Laboratory results: US7629354B2, “Use of phanquinone for the treatment of Alzheimer's disease” (Prana Biotechnology Limited, priority 1997, dated 2009)

How the values were obtained:
[1] = in vivo; cited from earlier work
Aβ(1-40) [2] = biological target: T1, Aβ(1-40) (Homo sapiens, UniProt P05067); assay: Thioflavin T fluorometric assay of Zn2+-induced Aβ(1-40) aggregation; assay type: biochemical; settings: test compound 10 μg/ml; Aβ(1-40) 100 μM; 24 hours, room temperature
T1 construct: A 5 mg/ml stock solution of Aβ(1-40) (delivered from Bachem (CH)) was freshly prepared; purchased Bachem (CH)
T1 sequence (P05067 672-711): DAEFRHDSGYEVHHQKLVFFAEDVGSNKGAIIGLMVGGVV
Experimental: (§1) A 5 mg/ml stock solution of Aβ(1-40) (delivered from Bachem (CH)) was freshly prepared before each experiment by dissolving the lyophilised peptide in 0.01 M HCl, followed by subsequent dilution 1:1 with 0.01 M NaOH to yield a neutral pH. Aliquot of Aβ(1-40) were diluted in PBS (pH 7.4) to 100 μM and incubated at a total volume of 30 μl for 24 hours at room temperature. For co-incubation experiments, the indicated concentrations of metal ions and/or aliquot of test compounds were added. The test compounds were added to a final […] concentration of 10 μg/ml.
(§2) The amyloid formation was quantified by a thioflavin T fluorometric assay. Thioflavin binds specifically to amyloid and this introduces a shift in its emission spectrum and a fluorescent signal proportional to the amount of amyloid is formed. After incubation, Aβ(1-40) peptides were added to PBS (pH 6.0) and 3 μM thioflavin T in a final volume of 1 ml. Fluorescence was monitored at excitation 454 nm and emission 482 nm using a Fluoroscan II fluorometer (Molecular devices, UK). A time scan of fluorescence was performed and three values after the decay reached a plateau (around 5 minutes) were averaged after subtracting the background fluorescence of 3 μM thioflavin T. For co-incubation experiments, fluorescence of test compound alone was determined. Samples were run in triplicate. […]

Aβ(1-40) [3] = biological target: T1, Aβ(1-40); assay: Thioflavin T fluorometric assay of Cu2+-induced Aβ(1-40) aggregation; assay type: biochemical; settings: test compound 10 μg/ml; Aβ(1-40) 100 μM; 24 hours, room temperature
Experimental: as §1, §2

[4] = Solubility in water / aqueous solutions; assay type: physicochemical
[5] = 1H NMR study of the interaction of vitamin B12 with clioquinol glucuronide; assay type: binding; settings: 2.6 mM vitamin B12 and 10 mM clioquinol glucuronide, buffered water pH=6.5, 20° C.
Experimental: Three different solutions were prepared and their 1H NMR spectra were recorded in a DRX 400 MHz spectrophotometer at 20° C. Solution a) contained free vitamin B12 (hydroxycobalamin) in a concentration of 2.6 mM.
In FIG. 5 the spectra of the three solutions are presented for the aromatic region (5.5-9.8 ppm). The differences are quite small but obvious in the expansion shown of FIG. 6 and FIG. 7, respectively.

PC12 cells = assay: MTT reduction (cell redox activity) in PC12 cells exposed to Aβ(25-35); assay type: cell-based, Rat
Experimental: Aβ(25-35) was delivered by Bachem (CH) or Sigma (USA) and dissolved in phosphate buffered saline (PBS) at pH 7.4, 2 hours prior to application.
Rat PC12 pheochromocytoma cells were grown in Dulbecco's modified Eagle's medium (DMEM) containing 1% penicillin-streptomycin, 5% fetal calf serum and 10% horse serum in humidified incubator with 5% CO2.
PC12 cells were plated on 96-wells microtiter plates in 100 μl of the appropriate medium. After 24 hours the indicated concentrations of Aβ(25-35) peptide was added alone or together with phanquinone in the designated concentrations. Incubation continued for 24 hours. Following incubation, MTT reduction was measured using a commercially available assay according to the manufacturer's (Boehringer Mannheim) instructions. Assay values obtained by vehicle alone were defined as 100%.
MTT is a substrate for intracellular and plasma membrane oxidoreductases and has been widely used to measure reductions of cell redox activity.
To test the effect of phanquinone on Aβ(25-35) induced toxicity in PC12 cells, PC12 cells were exposed to Aβ(25-35) peptide concentrations ranging from 0 to 10 μM. In the absence of phanquinone (i.e. only vehicle added) Aβ(25-35) produced a dose-dependent inhibition of MTT reduction (FIG. 1, filled-in circles).
In this study the same materials and methods as in example 1 were used, except that the PC12 cells were exposed to a fixed Aβ concentration of 1 μM, whereas the concentration of phanquinone was varied between 0 and 10 μg/ml. […] This inhibition was maintained in the presence of up to 0.1 μg phanquinone per ml.

Compound: Oc1c(I)cc(Cl)c2cccnc12 [clioquinol, 5-chloro-7-iodo-8-hydroxyquinoline]
- adverse side effects [1]: causes subacute myelo-optico-neuropathy (SMON)
- reduction of Zn2+-induced aggregation of Aβ(1-40) (Aβ(1-40) [2]): more than 60%
- reduction of Cu2+-induced aggregation of Aβ(1-40) (Aβ(1-40) [3]): approximately 30%
- solubility in water [4]: cannot be dissolved in aqueous solutions

Compound: COC(=O)C1OC(Oc2c(I)cc(Cl)c3cccnc23)C(OC(C)=O)C(OC(C)=O)C1OC(C)=O (centres unmarked) [clioquinol glucuronide, methyl(5-chloro-7-iodo-quinolyl-2′,3′,4′-tri-O-acetyl-glucopyranosid)uronate]
- interaction with vitamin B12 (shift of 1H NMR resonances) [5]: interaction between clioquinol glucuronide and vitamin B12, possibly of a hydrophobic nature
- solubility in water [4]: soluble in water

Compound: CCN(CC)C(=S)SSC(=S)N(CC)CC [Disulfiram]
- adverse side effects [1]: severe adverse reactions

Compound: O=C1C(=O)c2ncccc2-c2cccnc21 [phanquinone, 4,7-phenanthroline-5,6-dione]
- adverse side effects [1]: no adverse side effects have been detected
- reduction of Cu2+-induced aggregation of Aβ(1-40) (Aβ(1-40) [3]): 50-60%
- redox activity of Aβ(25-35)-treated cells (PC12 cells; 1 μM Aβ(25-35), 1 μg/ml phanquinone or more): normal redox activity is restored
- toxic effect of Aβ (PC12 cells; 10 μg phanquinone per ml, Aβ as high as 1 μM): completely counteracted
- toxic effect of Aβ(25-35) (PC12 cells; 10 μg phanquinone per ml, Aβ(25-35) 0 to 10 μM): virtually abolished
- toxic effect of Aβ(25-35) (PC12 cells; Aβ 1 μM, phanquinone 1 μg/ml and above): completely abolished
- toxic effect of Aβ(25-35) (PC12 cells; Aβ 1 μM, phanquinone above 0.1 μg/ml): drastic reduced toxic effect
- inhibition of MTT reduction by Aβ(25-35) (PC12 cells; Aβ 1 μM, up to 0.1 μg phanquinone per ml): maintained

Compound: Aβ(25-35): peptide sequence between amino acid residues 25 and 35 of Aβ, delivered by Bachem or Sigma (GSNKGAIIGLM; Amyloid-beta protein 42; UniProt P05067 696-706, looked up, fragment)
- redox activity of cells, of the normal level (PC12 cells; 1 μM Aβ(25-35)): 60%
- inhibition of MTT reduction (PC12 cells; Aβ(25-35) 1 μM, absence of phanquinone): approximately 40%
- inhibition of MTT reduction (PC12 cells; Aβ(25-35) 10 μM, absence of phanquinone): approximately 50%
- inhibition of MTT reduction (PC12 cells; Aβ(25-35) as low as 0.01 μM): significant reduction
- MTT reduction reduced to a maximum level (PC12 cells; Aβ(25-35) on or above 0.1 μM, absence of phanquinone): about 50%
